Source: ChEMBL document CHEMBL5649169 (ChemMedChem, 2018)

Assays:
[1] = target: Serine/threonine-protein kinase ICK (Homo sapiens) (UniProt Q9UPZ9)
[2] = target: Cytochrome c oxidase subunit NDUFA4 (Homo sapiens) (UniProt O00483)
[3] = target: Tubulin beta-3 chain (Homo sapiens) (UniProt Q13509)
[4] = target: Serine/threonine-protein phosphatase 6 regulatory subunit 1 (Homo sapiens) (UniProt Q9UPN7)
[5] = target: Dolichyl-diphosphooligosaccharide--protein glycosyltransferase subunit KCP2 (Homo sapiens) (UniProt Q8N6L1)
[6] = target: Structural maintenance of chromosomes protein 4 (Homo sapiens) (UniProt Q9NTJ3)
[7] = target: Zinc finger CCCH-type antiviral protein 1 (Homo sapiens) (UniProt Q7Z2W4)
[8] = target: Nucleolar protein 56 (Homo sapiens) (UniProt O00567)
[9] = target: Small ribosomal subunit protein eS25 (Homo sapiens) (UniProt P62851)
[10] = target: T-complex protein 1 subunit theta (Homo sapiens) (UniProt P50990)
[11] = target: Histone H1.5 (Homo sapiens) (UniProt P16401)
[12] = target: Peripherin (Homo sapiens) (UniProt P41219)
[13] = target: Chitobiosyldiphosphodolichol beta-mannosyltransferase (Homo sapiens) (UniProt Q9BT22)
[14] = target: T-complex protein 1 subunit gamma (Homo sapiens) (UniProt P49368)
[15] = target: Probable ATP-dependent RNA helicase DDX17 (Homo sapiens) (UniProt Q92841)
[16] = target: Polyadenylate-binding protein-interacting protein 1 (Homo sapiens) (UniProt Q9H074)
[17] = target: Oligosaccharyltransferase complex subunit OSTC (Homo sapiens) (UniProt Q9NRP0)
Homo sapiens [18] = species: Homo sapiens
[19] = target: Transmembrane emp24 domain-containing protein 9 (Homo sapiens) (UniProt Q9BVK6)
[20] = target: Staphylococcal nuclease domain-containing protein 1 (Homo sapiens) (UniProt Q7KZF4)
[21] = target: Oxysterol-binding protein-related protein 8 (Homo sapiens) (UniProt Q9BZF1)
[22] = target: Serine/threonine-protein kinase B-raf (Homo sapiens) (UniProt P15056)
[23] = target: Pre-mRNA-processing factor 6 (Homo sapiens) (UniProt O94906)
[24] = target: THUMP domain-containing protein 1 (Homo sapiens) (UniProt Q9NXG2)
[25] = target: S-phase kinase-associated protein 2 (Homo sapiens) (UniProt Q13309)
[26] = target: Eukaryotic translation initiation factor 6 (Homo sapiens) (UniProt P56537)
[27] = target: TBC1 domain family member 15 (Homo sapiens) (UniProt Q8TC07)
[28] = target: Large ribosomal subunit protein uL15 (Homo sapiens) (UniProt P46776)
[29] = target: Cleavage and polyadenylation specificity factor subunit 6 (Homo sapiens) (UniProt Q16630)
[30] = target: FACT complex subunit SPT16 (Homo sapiens) (UniProt Q9Y5B9)
[31] = target: Protein LSM12 (Homo sapiens) (UniProt Q3MHD2)
[32] = target: Dolichyl-diphosphooligosaccharide--protein glycosyltransferase subunit DAD1 (Homo sapiens) (UniProt P61803)
Ephrin type-A receptor 5 = Ephrin type-A receptor 5 (Homo sapiens, UniProt P54756)
[33] = target: ADP-ribosylation factor-like protein 1 (Homo sapiens) (UniProt P40616)
[34] = target: SUMO-conjugating enzyme UBC9 (Homo sapiens) (UniProt P63279)
[35] = target: Small ribosomal subunit protein uS7m (Homo sapiens) (UniProt Q9Y2R9)
Lamin-B2 (Homo sapiens) = Lamin-B2 (Homo sapiens) (UniProt Q03252)
Homo sapiens [36] = species: Homo sapiens; remark: listed apart in the source
[37] = target: ATP-binding cassette sub-family E member 1 (Homo sapiens) (UniProt P61221)
[38] = target: L-lactate dehydrogenase A chain (Homo sapiens) (UniProt P00338)
[39] = target: Membrane-associated progesterone receptor component 1 (Homo sapiens) (UniProt O00264)
[40] = target: Mitogen-activated protein kinase kinase kinase kinase 5 (Homo sapiens) (UniProt Q9Y4K4)
[41] = target: Cyclin-dependent kinase 1 (Homo sapiens) (UniProt P06493)
[42] = target: 116 kDa U5 small nuclear ribonucleoprotein component (Homo sapiens) (UniProt Q15029)
[43] = target: Transmembrane protein 43 (Homo sapiens) (UniProt Q9BTV4)
[44] = target: Protein S100-A11 (Homo sapiens) (UniProt P31949)
Further: assay method not described here.

Chain of Nucleolar protein 56 (Homo sapiens) (O00567 whole entry): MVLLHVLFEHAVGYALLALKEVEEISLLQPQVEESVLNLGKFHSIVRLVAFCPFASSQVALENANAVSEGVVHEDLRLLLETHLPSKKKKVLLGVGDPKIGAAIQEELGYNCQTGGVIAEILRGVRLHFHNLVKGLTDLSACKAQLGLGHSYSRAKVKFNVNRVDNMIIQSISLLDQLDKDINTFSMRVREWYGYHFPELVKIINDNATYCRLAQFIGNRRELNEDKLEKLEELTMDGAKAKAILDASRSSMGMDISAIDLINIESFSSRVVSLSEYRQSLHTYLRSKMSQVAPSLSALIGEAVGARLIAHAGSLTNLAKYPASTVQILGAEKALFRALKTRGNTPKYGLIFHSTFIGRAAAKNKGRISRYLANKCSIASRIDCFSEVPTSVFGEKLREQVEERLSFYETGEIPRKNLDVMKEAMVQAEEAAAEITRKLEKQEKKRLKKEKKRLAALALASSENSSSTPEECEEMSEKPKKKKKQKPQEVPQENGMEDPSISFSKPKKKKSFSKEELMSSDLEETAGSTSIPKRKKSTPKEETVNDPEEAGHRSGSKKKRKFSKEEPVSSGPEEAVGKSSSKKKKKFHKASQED
Chain of Serine/threonine-protein phosphatase 6 regulatory subunit 1 (Homo sapiens) (Q9UPN7 whole entry): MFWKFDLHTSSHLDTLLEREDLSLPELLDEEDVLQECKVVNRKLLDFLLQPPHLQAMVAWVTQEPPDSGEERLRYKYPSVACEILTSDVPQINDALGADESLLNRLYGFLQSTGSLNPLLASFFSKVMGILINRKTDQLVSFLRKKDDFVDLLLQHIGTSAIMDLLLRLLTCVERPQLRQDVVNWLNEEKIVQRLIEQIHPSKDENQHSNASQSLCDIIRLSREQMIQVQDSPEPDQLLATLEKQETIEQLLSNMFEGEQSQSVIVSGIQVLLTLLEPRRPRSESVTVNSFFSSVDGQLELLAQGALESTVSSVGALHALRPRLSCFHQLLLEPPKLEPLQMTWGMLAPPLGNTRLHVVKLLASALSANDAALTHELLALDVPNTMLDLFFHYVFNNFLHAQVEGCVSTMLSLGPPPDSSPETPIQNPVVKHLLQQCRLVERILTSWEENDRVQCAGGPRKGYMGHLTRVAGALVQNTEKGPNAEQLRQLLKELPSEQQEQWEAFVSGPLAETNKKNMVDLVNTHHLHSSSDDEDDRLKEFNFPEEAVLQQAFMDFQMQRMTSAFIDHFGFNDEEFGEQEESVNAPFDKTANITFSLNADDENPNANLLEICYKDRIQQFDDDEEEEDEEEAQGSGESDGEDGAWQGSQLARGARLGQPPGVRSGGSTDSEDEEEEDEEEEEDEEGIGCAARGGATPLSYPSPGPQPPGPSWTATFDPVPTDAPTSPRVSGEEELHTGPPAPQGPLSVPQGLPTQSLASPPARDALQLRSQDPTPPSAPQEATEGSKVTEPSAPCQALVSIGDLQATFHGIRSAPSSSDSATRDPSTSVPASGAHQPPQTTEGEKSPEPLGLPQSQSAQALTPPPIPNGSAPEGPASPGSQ
Chain of Probable ATP-dependent RNA helicase DDX17 (Homo sapiens) (Q92841 whole entry): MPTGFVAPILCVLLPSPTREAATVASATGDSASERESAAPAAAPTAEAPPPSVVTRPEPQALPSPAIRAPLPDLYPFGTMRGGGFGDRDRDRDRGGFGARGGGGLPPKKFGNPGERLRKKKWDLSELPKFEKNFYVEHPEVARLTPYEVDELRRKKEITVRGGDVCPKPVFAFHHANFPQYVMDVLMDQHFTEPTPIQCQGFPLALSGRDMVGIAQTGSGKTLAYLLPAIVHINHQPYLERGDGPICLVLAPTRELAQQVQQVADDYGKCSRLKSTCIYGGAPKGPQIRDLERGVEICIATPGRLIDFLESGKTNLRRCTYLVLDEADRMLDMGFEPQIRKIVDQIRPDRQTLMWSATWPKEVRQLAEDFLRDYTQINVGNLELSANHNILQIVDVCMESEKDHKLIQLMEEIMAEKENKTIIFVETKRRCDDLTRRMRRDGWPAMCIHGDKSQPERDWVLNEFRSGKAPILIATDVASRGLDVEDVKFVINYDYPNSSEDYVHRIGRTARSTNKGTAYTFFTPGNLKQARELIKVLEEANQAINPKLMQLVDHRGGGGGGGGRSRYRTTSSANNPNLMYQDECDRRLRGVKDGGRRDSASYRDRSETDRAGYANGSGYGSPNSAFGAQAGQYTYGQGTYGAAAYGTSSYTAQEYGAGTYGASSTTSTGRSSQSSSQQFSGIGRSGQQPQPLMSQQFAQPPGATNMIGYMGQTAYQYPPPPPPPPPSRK
Chain of Lamin-B2 (Homo sapiens) (Q03252 whole entry): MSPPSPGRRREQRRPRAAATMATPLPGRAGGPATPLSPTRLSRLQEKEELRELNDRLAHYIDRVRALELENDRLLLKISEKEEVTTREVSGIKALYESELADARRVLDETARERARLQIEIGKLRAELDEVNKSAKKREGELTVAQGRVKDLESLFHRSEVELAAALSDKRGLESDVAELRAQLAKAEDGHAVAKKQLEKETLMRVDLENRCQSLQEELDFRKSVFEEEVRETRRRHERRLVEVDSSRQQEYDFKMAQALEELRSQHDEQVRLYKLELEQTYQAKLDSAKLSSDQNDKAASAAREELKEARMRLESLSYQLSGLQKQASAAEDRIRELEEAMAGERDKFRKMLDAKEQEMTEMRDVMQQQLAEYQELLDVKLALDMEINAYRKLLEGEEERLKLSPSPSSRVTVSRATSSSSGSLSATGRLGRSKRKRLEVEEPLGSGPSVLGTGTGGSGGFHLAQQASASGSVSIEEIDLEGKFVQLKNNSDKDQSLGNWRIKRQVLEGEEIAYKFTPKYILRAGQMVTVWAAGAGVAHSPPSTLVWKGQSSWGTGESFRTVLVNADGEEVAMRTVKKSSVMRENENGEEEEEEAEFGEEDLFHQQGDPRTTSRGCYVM
Chain of Tubulin beta-3 chain (Homo sapiens) (Q13509 whole entry): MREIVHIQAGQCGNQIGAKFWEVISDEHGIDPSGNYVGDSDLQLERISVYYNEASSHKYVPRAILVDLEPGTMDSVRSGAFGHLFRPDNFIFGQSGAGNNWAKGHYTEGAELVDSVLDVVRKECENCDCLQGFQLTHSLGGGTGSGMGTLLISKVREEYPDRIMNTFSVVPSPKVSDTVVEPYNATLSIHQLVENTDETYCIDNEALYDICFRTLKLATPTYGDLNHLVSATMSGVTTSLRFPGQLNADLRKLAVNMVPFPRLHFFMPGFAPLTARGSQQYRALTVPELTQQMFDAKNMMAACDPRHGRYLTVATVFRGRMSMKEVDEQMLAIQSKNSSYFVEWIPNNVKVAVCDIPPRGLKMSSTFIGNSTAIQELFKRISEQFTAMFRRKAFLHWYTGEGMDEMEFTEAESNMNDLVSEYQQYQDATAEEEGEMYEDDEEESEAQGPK
Chain of Transmembrane emp24 domain-containing protein 9 (Homo sapiens) (Q9BVK6 whole entry, the tested form may be a part): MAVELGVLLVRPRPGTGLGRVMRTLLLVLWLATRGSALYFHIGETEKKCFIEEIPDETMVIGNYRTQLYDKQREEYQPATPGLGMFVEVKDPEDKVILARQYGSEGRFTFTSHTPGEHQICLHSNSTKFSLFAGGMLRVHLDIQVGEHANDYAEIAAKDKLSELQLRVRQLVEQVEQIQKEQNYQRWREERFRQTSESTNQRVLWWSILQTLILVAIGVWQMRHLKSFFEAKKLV
Chain of Transmembrane protein 43 (Homo sapiens) (Q9BTV4 whole entry): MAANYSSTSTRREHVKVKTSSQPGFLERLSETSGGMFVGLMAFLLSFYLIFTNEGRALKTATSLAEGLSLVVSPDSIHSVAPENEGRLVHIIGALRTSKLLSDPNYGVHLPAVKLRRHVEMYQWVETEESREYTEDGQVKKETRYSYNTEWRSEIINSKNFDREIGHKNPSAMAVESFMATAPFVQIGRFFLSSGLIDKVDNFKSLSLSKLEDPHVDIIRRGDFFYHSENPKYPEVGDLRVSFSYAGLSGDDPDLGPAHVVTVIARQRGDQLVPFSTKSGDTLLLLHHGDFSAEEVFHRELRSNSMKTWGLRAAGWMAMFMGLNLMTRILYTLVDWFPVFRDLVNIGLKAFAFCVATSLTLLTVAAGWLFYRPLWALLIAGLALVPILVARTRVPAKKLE
Chain of Cytochrome c oxidase subunit NDUFA4 (Homo sapiens) (O00483 whole entry): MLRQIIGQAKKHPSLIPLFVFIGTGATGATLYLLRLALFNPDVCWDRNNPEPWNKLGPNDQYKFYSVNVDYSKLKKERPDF
Chain of 116 kDa U5 small nuclear ribonucleoprotein component (Homo sapiens) (Q15029 whole entry): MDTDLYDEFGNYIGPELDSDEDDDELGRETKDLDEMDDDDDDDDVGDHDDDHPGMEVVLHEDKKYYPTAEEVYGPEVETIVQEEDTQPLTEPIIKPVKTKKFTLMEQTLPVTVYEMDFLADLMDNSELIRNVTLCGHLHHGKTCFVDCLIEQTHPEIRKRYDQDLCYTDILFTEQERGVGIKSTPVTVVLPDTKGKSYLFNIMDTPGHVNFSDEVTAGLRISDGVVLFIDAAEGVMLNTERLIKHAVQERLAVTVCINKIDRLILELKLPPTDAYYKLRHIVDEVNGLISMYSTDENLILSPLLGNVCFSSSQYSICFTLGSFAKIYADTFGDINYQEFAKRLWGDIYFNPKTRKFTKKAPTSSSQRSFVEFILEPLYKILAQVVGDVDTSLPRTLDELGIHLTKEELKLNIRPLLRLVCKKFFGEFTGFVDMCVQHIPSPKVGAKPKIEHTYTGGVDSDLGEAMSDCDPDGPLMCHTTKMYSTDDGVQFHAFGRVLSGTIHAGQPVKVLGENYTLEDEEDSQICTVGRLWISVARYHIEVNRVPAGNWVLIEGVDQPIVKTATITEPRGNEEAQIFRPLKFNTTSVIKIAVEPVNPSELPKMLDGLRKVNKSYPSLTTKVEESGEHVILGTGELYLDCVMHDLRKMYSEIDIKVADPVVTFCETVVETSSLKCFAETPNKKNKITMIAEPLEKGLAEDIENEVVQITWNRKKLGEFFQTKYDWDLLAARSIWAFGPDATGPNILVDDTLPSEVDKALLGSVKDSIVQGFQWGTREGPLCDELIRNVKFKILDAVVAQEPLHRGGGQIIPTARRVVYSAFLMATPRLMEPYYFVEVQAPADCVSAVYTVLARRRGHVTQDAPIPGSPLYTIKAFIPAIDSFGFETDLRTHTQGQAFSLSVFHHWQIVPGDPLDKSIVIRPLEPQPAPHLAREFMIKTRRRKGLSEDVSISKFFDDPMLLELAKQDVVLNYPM

Cc1ccc(C(=O)Nc2cccc(C(F)(F)F)c2)cc1Nc1nc(-c2cccnc2)nc2nn(C)cc12
ED50 [1]: 0.0292 µM | ED50 [2]: 70.3 µM | ED50 [3]: 0.106 µM | ED50 [4]: 0.00142 µM | ED50 [5]: 7.59 µM | ED50 [6]: 7.29 µM | ED50 [7]: 0.0483 µM | ED50 [8]: 4 µM | ED50 [9]: 0.2 µM | ED50 [10]: 43.3 µM | ED50 [11]: 1000 µM | ED50 [12]: 1.74 µM | ED50 [13]: 0.0163 µM | ED50 [14]: 0.09 µM | ED50 [15]: 16.2 µM | ED50 [16]: 0.00552 µM | ED50 [17]: 1.15 µM | ED50 (Homo sapiens [18]): 9.29 µM | ED50 [19]: 0.00396 µM | ED50 [20]: 0.57 µM | ED50 [21]: 650 µM | ED50 [22]: 9.35 µM | ED50 [23]: 2.11 µM | ED50 [24]: 75 µM | ED50 [25]: 0.00261 µM | ED50 [26]: 0.223 µM | ED50 [27]: 34.9 µM | ED50 [28]: 16.7 µM | ED50 [29]: 0.349 µM | ED50 [30]: 0.149 µM | ED50 [31]: 5.58 µM | ED50 [32]: 32.9 µM | ED50 (Ephrin type-A receptor 5): 0.982 µM | ED50 [33]: 2.85 µM | ED50 [34]: 0.291 µM | ED50 [35]: 154 µM | ED50 (Lamin-B2 (Homo sapiens)): 1.63 µM | ED50 (Homo sapiens [36]): 0.135 µM | ED50 [37]: 0.000362 µM | ED50 [38]: 21.8 µM | ED50 [39]: 23.2 µM | ED50 [40]: 13.4 µM | ED50 [41]: 7.91 µM | ED50 [42]: 0.0593 µM | ED50 [43]: 10.6 µM | ED50 [44]: 30.9 µM

Cc1ccc(C(=O)Nc2cccc(C(F)(F)F)c2)cc1Nc1nc(-c2cccnc2)nc2c1cnn2C
ED50 [1]: 0.0433 µM | ED50 [2]: 13.5 µM | ED50 [3]: 3.06 µM | ED50 [4]: 10.4 µM | ED50 [5]: 0.164 µM | ED50 [6]: 7.32 µM | ED50 [7]: 13.3 µM | ED50 [8]: 13.1 µM | ED50 [9]: 2.64 µM | ED50 [10]: 0.0186 µM | ED50 [11]: 4 µM | ED50 [12]: 0.178 µM | ED50 [13]: 1.14 µM | ED50 [14]: 0.0644 µM | ED50 [15]: 0.126 µM | ED50 [16]: 13.9 µM | ED50 [17]: 15.6 µM | ED50 (Homo sapiens [18]): 3.14 µM | ED50 [19]: 67.9 µM | ED50 [20]: 23.6 µM | ED50 [21]: 0.128 µM | ED50 [22]: 3.64 µM | ED50 [23]: 151 µM | ED50 [24]: 101 µM | ED50 [25]: 4.82 µM | ED50 [26]: 3 µM | ED50 [27]: 0.829 µM | ED50 [28]: 5.95 µM | ED50 [29]: 15 µM | ED50 [30]: 0.0046 µM | ED50 [31]: 0.00519 µM | ED50 [32]: 14 µM | ED50 (Ephrin type-A receptor 5): 0.0633 µM | ED50 [33]: 0.000716 µM | ED50 [34]: 47.7 µM | ED50 [35]: 7.18 µM | ED50 (Lamin-B2 (Homo sapiens)): 257 µM | ED50 (Homo sapiens [36]): 3.01 µM | ED50 [37]: 13.8 µM | ED50 [38]: 0.00901 µM | ED50 [39]: 0.651 µM | ED50 [40]: 5.17 µM | ED50 [41]: 3.8 µM | ED50 [42]: 0.108 µM | ED50 [43]: 0.00615 µM | ED50 [44]: 3.06 µM
